# Measurements from patent publication US20240156765A1, “METHODS OF NEUROPROTECTION AND USES THEREOF” (UNIVERSITY OF TENNESSEE RESEARCH FOUNDATION, priority 2020, published 2024).
# Tests used:
# [1] = system: BXD29 mice; test: Daily topical PRG ME in BXD29 mice (normal tension glaucoma model): IOP and optic nerve axons; format: in vivo
# Excerpt: Objective: An obstacle in this study is the in vivo assessment of any direct neuroprotective effects of PRG that are independent of IOP lowering. […] These characteristics make BXD29 ideal for evaluating the direct neuroprotective properties of PRG on RGCs by eliminating indirect effects that would be mediated through IOP reduction.
# We have evidence to show, without wishing to be bound by theory, that topical dosing with our PRG ME is neuroprotective to RGC axons in the ON. We dosed BXD29 mice daily with PRG ME beginning at 5 weeks of age (FIG. 9A) before ON degeneration was marked. […] In contrast, ON from mice dosed with unmedicated ME had loss of axon profiles and increased areas of debris (FIG. 9C). The studies will evaluate the role of PRG as a RGC neuroprotectant and define its cellular mechanism of action.
# [2] = system: intraocular pressure (IOP); test: IOP lowering by topically applied pregabalin without microemulsion (aqueous); format: in vivo
# [3] = not told; cited from earlier work
# [4] = PRG release from formulation; format: physicochemical; conditions: as an aqueous eye drop
# [5] = target: CACNA2D1 (Homo sapiens, UniProt P54289); conditions: listed as PRG; cited from earlier work
# Sequence of CACNA2D1 (P54289 25-1103): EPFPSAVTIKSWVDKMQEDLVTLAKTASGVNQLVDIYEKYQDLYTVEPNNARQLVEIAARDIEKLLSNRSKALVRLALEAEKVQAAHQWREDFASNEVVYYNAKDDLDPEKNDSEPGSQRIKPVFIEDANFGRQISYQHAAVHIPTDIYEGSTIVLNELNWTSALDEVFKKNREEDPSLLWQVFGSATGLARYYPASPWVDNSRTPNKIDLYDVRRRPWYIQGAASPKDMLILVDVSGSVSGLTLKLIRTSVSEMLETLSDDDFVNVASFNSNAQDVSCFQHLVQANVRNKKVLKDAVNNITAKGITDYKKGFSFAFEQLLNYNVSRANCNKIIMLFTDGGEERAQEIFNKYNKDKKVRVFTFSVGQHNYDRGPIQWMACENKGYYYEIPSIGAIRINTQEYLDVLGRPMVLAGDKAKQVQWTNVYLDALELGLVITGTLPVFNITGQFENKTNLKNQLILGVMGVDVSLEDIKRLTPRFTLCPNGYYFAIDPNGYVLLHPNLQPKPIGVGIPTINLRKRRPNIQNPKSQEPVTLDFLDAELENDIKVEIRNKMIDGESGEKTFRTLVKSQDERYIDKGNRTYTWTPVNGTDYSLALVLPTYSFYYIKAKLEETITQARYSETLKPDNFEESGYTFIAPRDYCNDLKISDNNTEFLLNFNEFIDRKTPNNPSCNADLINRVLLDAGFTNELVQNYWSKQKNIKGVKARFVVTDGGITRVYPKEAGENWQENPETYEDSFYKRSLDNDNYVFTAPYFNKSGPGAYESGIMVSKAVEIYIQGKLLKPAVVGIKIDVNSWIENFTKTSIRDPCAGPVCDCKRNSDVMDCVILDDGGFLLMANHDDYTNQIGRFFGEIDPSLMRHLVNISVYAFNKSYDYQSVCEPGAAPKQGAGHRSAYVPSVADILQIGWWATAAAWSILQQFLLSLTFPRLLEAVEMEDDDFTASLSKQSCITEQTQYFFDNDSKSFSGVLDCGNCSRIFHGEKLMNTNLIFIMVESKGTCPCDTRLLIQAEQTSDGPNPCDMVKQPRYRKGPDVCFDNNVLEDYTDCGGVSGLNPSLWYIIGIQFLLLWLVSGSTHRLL
# [6] = system: Dutch belted rabbits; test: Single-drop IOP-lowering efficacy of PRG eye drop formulations; format: in vivo
# Procedure: At 24 hours after dosing, IOP is still reduced by >20%.
# Moreover, the combined effect of all three layers of our W/O/W ME is critical for enhancing the efficacy of PRG. […] Using this same model, we will evaluate our optimized formulations from Test 1.1.
# Research Design and Methods: Dutch belted rabbits (Envigo Rabbitry; formerly Covance) will be used in this single-dose design study. Rabbits from this rabbitry can have higher baseline IOP values than those purchased from other rabbitries. Rabbits (equally balanced between males and females) will be acclimated to handling and IOP measurements for at least seven days before initiation of the study. Slit-lamp biomicroscopic and fundoscopic examinations will be performed before and after the study. Our top three formulations from Test 1.1 will be tested in this model using our methods^12. The IOP of both eyes will be measured using a rebound tonometer (Tono-Pen AVIA Vet, Reichert) immediately before the formulation application (baseline, 8 am) and at hourly time intervals after application until the IOP returns to baseline. Using a sterile micropipette tip, thirty microliters of the formulation containing PRG ME or blank control will be instilled topically into one eye of each rabbit, while the fellow eye will receive the formulation vehicle, and therefore serve as controls. Rabbits will be dosed daily at 8 am for 21 days, and IOP collected at 8 am (immediately pre-dosing) and at the time at which the maximum IOP reduction is measured (Tmax) using our methods^12. Curves similar to FIG. 16 will be generated. Biocompatibility of the antioxidant-containing formulations will be assessed using with slit lamp biomicroscopy as in FIG. 17. The person performing the studies will be blinded regarding which eye receives the medicated formation and which one receives the blank control for each rabbit. Assuming a power of 80%, and a marginal difference in IOP outcome of 30%, we estimate that this study will require 10 rabbits. We will also evaluate these formulations in C57Bl/6J (B6) mice and cynomolgus monkeys, which will allow for species confirmation and comparison.
# [7] = system: γ-aminobutyric acid (GABA) receptors; conditions: cited from earlier work
# [8] = PRG in an oral solution; cited from earlier work
# [9] = topically applied PRG, aqueous / initial formulation without ME
# [10] = topically applied PRG, aqueous / initial formulation without ME, listed as PRG
# [11] = PRG in the absence of the ME (Carbopol 981 gel), single drop
compound,measurement,setting,value
CC(C)C[C@H](CN)CC(=O)O [pregabalin],optic nerve (ON) axons,[1]; daily topical dosing for 6 weeks from 5 weeks of age,prevents degeneration of axons
same,IOP response,"[1]; topical dosing, up to 6 weeks daily",unresponsive
same,"IOP lowering, dose dependence",[2]; topical dosing,dose dependent manner
same,IOP reduction,[2]; [9],20%
same,time at which IOP returns to baseline,[2]; [9],≤ 7 h
same,IOP reduction,[2]; [10],17%
same,time at which IOP returns to baseline,[2]; [10],6 h
same,IOP lowering,[2]; without the microemulsion,about 20%
same,time at which IOP returns to baseline,[2]; without the microemulsion,8 to 10 h
same,membrane permeability,[3],high
same,PRG release time,[4],3 h
same,affinity for CACNA2D1,[5],high affinity and specificity
same,AUC of IOP reduction,[6]; PRG in the absence of the ME,38 mmHg·hr
same,IOP reduction,[6]; [11],30%
same,time at which IOP returns to baseline,[6]; [11],10 h
same,"IOP lowering, dose dependence","[6]; topical dosing with PRG, Dutch belted rabbits",dose dependent manner
same,binding to GABA receptors,[7],does not bind
same,chemical stability,[8],> 1 year
